Earlier results on one compound are cited in patent US11718578B2, “Ketamine flow synthesis” (Université de Liège, priority 2017, dated 2023).

The target in this data set is glutamatergic N-methyl-D-aspartate (NMDA) receptor. Particulars: non-competitive NMDA receptor antagonist; according to Tyler et al.

Regarding `CN[C@]1(c2ccccc2Cl)CCCCC1=O` [1a, (S)-2-(2-chlorophenyl)-2-(methylamino)-cyclohexanone], the half-inhibitory concentration (IC50) was 465 nM.

For orientation: IC50 means the concentration needed to halve the response being measured.
